Data taken from BindingDB's records for PubMed 9686407 (Sri International, 1998).
Non-standard residues stand in square brackets, D forms with d. Residues, ends and D or L forms follow the SMILES beside them. NMeF = CN[C@@H](Cc1ccccc1)C(=O)O

Columns and labels:
[1] = target: Mu-type opioid receptor (Cavia porcellus, UniProt P97266)
[2] = target: Kappa-type opioid receptor (Cavia porcellus, UniProt P41144)
[3] = target: T1, 5-hydroxytryptamine receptor 1A (Homo sapiens, UniProt P08908)
T1 sequence (P08908 whole entry): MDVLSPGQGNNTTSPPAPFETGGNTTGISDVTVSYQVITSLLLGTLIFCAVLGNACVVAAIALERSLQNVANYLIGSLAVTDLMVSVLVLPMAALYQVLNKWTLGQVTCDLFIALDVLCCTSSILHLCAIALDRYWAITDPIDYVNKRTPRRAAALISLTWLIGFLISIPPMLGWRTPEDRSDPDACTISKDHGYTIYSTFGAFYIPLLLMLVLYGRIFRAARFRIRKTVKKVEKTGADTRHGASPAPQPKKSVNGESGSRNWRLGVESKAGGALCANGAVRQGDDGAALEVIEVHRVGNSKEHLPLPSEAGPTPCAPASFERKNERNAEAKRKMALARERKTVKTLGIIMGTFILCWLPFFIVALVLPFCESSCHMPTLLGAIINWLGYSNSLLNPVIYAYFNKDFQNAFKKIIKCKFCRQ

[4] = target: T2, 5-hydroxytryptamine receptor 2C (Rattus norvegicus, UniProt P08909)
T2 sequence (P08909 whole entry): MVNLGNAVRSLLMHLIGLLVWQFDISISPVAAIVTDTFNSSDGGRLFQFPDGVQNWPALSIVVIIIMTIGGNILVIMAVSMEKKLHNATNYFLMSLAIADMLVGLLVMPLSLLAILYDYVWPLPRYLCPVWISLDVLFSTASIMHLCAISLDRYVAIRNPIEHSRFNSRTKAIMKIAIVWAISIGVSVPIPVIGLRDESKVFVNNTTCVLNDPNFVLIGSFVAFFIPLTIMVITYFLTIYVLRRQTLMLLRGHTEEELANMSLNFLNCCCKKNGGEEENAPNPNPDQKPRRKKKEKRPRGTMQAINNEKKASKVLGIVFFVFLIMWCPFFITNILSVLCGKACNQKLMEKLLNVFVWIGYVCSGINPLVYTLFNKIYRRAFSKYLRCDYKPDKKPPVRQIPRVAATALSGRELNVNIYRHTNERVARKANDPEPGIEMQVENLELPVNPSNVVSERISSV

[5] = target: T3, 5-hydroxytryptamine receptor 3A (Mus musculus, UniProt P23979)
T3 sequence (P23979 whole entry): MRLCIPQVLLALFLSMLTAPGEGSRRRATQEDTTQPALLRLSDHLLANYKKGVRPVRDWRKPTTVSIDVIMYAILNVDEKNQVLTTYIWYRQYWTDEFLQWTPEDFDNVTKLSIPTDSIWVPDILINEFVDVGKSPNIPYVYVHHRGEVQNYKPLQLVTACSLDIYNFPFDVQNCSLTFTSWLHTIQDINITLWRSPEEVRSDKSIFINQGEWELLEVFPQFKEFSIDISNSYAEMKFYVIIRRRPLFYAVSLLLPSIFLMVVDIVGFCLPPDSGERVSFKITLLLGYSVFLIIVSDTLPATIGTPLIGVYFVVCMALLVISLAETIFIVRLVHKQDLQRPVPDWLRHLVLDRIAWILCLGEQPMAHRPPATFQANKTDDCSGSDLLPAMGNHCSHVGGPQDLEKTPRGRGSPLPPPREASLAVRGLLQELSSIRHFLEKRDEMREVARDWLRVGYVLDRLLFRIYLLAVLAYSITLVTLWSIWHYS

[6] = target: 5-hydroxytryptamine receptor 2A (Rattus norvegicus, UniProt P14842)
[7] = target: D(1A) dopamine receptor (Homo sapiens, UniProt P21728)
Sequence of D(1A) dopamine receptor (P21728 whole entry): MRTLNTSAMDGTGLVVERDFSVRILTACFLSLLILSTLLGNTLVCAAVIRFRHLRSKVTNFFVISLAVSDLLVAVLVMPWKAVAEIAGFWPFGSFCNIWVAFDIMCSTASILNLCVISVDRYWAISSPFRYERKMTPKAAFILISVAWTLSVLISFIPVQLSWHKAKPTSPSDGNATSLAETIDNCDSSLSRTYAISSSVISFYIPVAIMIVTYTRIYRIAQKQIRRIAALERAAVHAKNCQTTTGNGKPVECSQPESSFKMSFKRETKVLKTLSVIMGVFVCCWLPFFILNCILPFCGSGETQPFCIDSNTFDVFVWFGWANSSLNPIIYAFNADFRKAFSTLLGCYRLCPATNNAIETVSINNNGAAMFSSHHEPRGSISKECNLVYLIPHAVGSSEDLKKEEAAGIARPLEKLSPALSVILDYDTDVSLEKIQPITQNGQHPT

Sequence of Kappa-type opioid receptor (P41144 whole entry): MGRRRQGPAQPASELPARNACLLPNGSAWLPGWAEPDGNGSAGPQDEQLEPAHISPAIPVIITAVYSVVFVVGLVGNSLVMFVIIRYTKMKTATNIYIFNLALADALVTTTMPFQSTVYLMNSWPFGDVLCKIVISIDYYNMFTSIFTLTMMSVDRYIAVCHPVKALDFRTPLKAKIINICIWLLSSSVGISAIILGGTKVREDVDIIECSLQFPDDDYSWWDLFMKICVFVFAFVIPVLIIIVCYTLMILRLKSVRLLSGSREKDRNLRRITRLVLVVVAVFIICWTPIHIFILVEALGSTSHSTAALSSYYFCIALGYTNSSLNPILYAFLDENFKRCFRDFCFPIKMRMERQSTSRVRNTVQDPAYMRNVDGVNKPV
Sequence of 5-hydroxytryptamine receptor 2A (P14842 whole entry): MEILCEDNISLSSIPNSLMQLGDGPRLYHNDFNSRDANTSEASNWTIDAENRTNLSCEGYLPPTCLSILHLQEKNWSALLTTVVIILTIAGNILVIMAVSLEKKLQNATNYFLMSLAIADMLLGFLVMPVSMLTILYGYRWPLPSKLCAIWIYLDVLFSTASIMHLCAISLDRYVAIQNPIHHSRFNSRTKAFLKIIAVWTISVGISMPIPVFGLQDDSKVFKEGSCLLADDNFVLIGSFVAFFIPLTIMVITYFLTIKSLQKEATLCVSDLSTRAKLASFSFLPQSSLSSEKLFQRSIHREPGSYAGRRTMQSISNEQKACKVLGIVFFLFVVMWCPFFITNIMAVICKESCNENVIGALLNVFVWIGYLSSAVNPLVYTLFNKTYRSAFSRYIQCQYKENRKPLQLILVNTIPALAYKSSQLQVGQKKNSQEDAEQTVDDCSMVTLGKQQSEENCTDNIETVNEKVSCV
Sequence of Mu-type opioid receptor (P97266 whole entry): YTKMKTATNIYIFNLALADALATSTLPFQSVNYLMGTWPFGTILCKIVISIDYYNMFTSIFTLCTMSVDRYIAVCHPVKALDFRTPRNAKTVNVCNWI

Compound	Ki [1]	Ki [2]	Ki [3]	Ki [4]	Ki [5]	Ki [6]	Ki [7]
C=CCN1CCC23c4c5ccc(O)c4O[C@@H]2C(=NNC(=O)c2ccccc2)CCC3(O)C1C5 (stereo partly specified)	0.2 nM	0.4 nM					
C[C@@H](O)[C@H](NC(=O)[C@H]1NC(=O)[C@H]([C@@H](C)O)NC(=O)[C@H](CCCN=C(N)N)NC(=O)[C@@H](Cc2c[nH]c3ccccc23)NC(=O)[C@H](Cc2ccc(O)cc2)NC(=O)[C@@H](NC(=O)[C@H](N)Cc2ccccc2)CSSC1(C)C)C(N)=O [CTAP-NH2]	0.5 nM	1050 nM					
CC[C@@]12CCN(CC3CC3)C(C(=O)c3ccc(O)cc31)[C@@H]2C [EKC]	0.4 nM						
CC[C@H](C)[C@H](NC(=O)[C@H](CCCNC(=N)N)NC(=O)[C@H](CCCNC(=N)N)NC(=O)[C@H](CC(C)C)NC(=O)[C@H](Cc1ccccc1)NC(=O)CNC(=O)CNC(=O)[C@@H](N)Cc1ccc(O)cc1)C(=O)N[C@@H](CCCNC(=N)N)C(=O)N1CCC[C@H]1C(=O)N[C@@H](CCCCN)C(=O)N[C@@H](CC(C)C)C(=O)N[C@@H](CCCCN)C(=O)O [Dynorphin A (1-13)]	3.3 nM						
Oc1ccc2c3c1OC1C(O)C=CC4C(C2)NCCC341 (stereo unspecified) [NORMORPHINE]	3.9 nM	64.5 nM					
H-YGGFMTSEKSQTPLVTLFKNAIVKNAHKKGQ-OH [Beta-Endorphin]	2.3 nM	43.5 nM					
C=C1CCC2(O)C3Cc4ccc(O)c5c4C2(CCN3CC2CC2)C1O5 (stereo unspecified) [NSC_119501]	0.3 nM	0.3 nM					
Oc1ccc2c3c1O[C@H]1c4oc5ccccc5c4C[C@@]4(O)[C@@H](C2)N(CC2CC2)CC[C@]314 [CAS_111555-58-9]	6.5 nM	10.2 nM					
CN(C(=O)[C@@H]1CCCN1C(=O)[C@@H](N)Cc1ccc(O)cc1)[C@@H](Cc1ccccc1)C(=O)N1CCC[C@@H]1C(N)=O (H-YP[NMeF][dP]-NH2)	8.1 nM	> 10000 nM					
CN1CC[C@]23c4c5ccc(O)c4O[C@H]2[C@@H](O)CCC3[C@H]1C5 (stereo partly specified) [DIHYDROMORPHINE]	0.8 nM						
C=CCN1CC[C@]23c4c5ccc(O)c4O[C@H]2[C@@H](O)C=CC3[C@H]1C5 (stereo partly specified) [NALORPHINE - HCI]	1.9 nM	1.7 nM					
CN[C@@H](C)Cc1ccccc1 [METHAMPHETAMINE (+)]			> 10000 nM	> 10000 nM	> 10000 nM	> 10000 nM	> 10000 nM
CC(C)=CCN1CC[C@@]2(C)c3cc(O)ccc3C[C@@H]1[C@@H]2C [Talwin]	5.7 nM	4.4 nM					
CN1CCC2(C)c3cc(O)ccc3CC1C2(C)CCC(=O)CCC1CCCC1 (stereo unspecified) [CAS_115077]	0.1 nM	0.2 nM					
CCc1cc(Cl)c(OC)c(C(=O)NC[C@@H]2CCCN2CC)c1O [3-Chloro-5-ethyl-N-((S)-1-ethyl-pyrrolidin-2-ylmethyl)-6-hydroxy-2-methoxy-benzamide]			1790 nM	> 10000 nM	> 10000 nM	705 nM	> 10000 nM
COC(=O)[C@@H](c1ccccc1)[C@@H]1CCCCN1			> 10000 nM	> 10000 nM	> 10000 nM	> 10000 nM	> 10000 nM
Fc1ccc(C(OCCN2CCN(CCCc3ccccc3)CC2)c2ccc(F)cc2)cc1 [Vanoxerine]			4680 nM	> 10000 nM	> 10000 nM	161 nM	> 10000 nM
CCCN1CCCC(c2cccc(O)c2)C1 (stereo unspecified) [CAS_85976-54-1]			4170 nM	> 10000 nM	> 10000 nM	5990 nM	> 10000 nM

Compound	Ki [1]	Ki [2]	Ki [3]	Ki [4]	Ki [5]	Ki [6]	Ki [7]
Oc1ccc2c3c1OC1c4[nH]c5ccccc5c4CC4(O)[C@H](C2)N(CC2CC2)CCC314 (stereo partly specified) [NALTRINDOLE]	0.2 nM	7.8 nM					
COc1ccc2c3c1OC1C(O)C=CC4C(C2)N(C)CCC341 (stereo unspecified) [NSC_223652]	152 nM	> 10000 nM					
CCC12CCN(CC3(O)CC3)C(Cc3ccc(O)cc31)C2(C)C (stereo unspecified)	0.1 nM						
CC(C)C[C@H]1C(=O)N2CCC[C@H]2[C@]2(O)O[C@](NC(=O)[C@@H]3C=C4c5cccc6[nH]c(Br)c(c56)C[C@H]4N(C)C3)(C(C)C)C(=O)N12 [Bromocriptine+ (GTP+)]			25 nM	4670 nM	> 10000 nM	117 nM	2070 nM
CC(C)C[C@@H](NC(=O)[C@H](Cc1ccccc1)NC(=O)CNC(=O)[C@@H](C)NC(=O)[C@@H](N)Cc1ccc(O)cc1)C(=O)O [[D-Ala2-D-Leu5]enkephalin]	3.2 nM	> 10000 nM					
Oc1ccc2c3c1O[C@H]1c4[nH]c5c(c4C[C@@]4(O)[C@@H](C2)N(CC2CC2)CC[C@]314)C[C@@]1(O)[C@H]2Cc3ccc(O)c4c3[C@@]1(CCN2CC1CC1)[C@H]5O4 [C18130]	8.3 nM						
CN1CC[C@]23CCCC[C@H]2[C@H]1Cc1ccc(O)cc13 [CAS_5985-38-6]	0.3 nM	3.4 nM					
NC(=O)N1c2ccccc2C=Cc2ccccc21 [5H-dibenzo[b,f]azepine-5-carboxamide]			> 10000 nM	> 10000 nM	> 10000 nM	> 10000 nM	> 10000 nM
C[C@@H](NC(=O)[C@@H](N)Cc1ccc(O)cc1)C(=O)NCC(=O)N(C)[C@@H](Cc1ccccc1)C(=O)NCCO [[tyrosyl-3,5-3H(N)]-D-Ala2-Mephe4-glyol5-enkephalin]	1.1 nM	1840 nM					
CN1CC(C(=O)N[C@]2(C)O[C@@]3(O)C4CCCN4C(=O)[C@H](Cc4ccccc4)N3C2=O)CC2c3cccc4[nH]cc(c34)CC21 (stereo partly drawn) [7-Methyl-4,6,6a,7,8,9,10,10a-octahydro-indolo[4,3-fg]quinoline-9-carboxylic acid ((2R,5S,10bS)-5-benzyl-10b-hydroxy-2-methyl-3,6-dioxo-octahydro-oxazolo[3,2-a]pyrrolo[2,1-c]pyrazin-2-yl)-amide]			1.5 nM	298 nM	> 10000 nM	38 nM	2780 nM
CC(C)[C@H](NC(=O)[C@H](CCC(=O)O)NC(=O)[C@H](Cc1ccccc1)NC(=O)[C@@H](C)NC(=O)[C@@H](N)Cc1ccc(O)cc1)C(=O)N[C@H](C(=O)NCC(N)=O)C(C)C [Tyr-D-Ala-Phe-Glu-Val-Val-GlyNH2]		> 10000 nM					
c1ccc2c(c1)OCC(C1=NCCN1)O2 (stereo unspecified)			662 nM	> 10000 nM	> 10000 nM	> 10000 nM	> 10000 nM
CC(C)C[C@H](NC(=O)[C@H](Cc1ccccc1)NC(=O)CNC(=O)[C@@H](CO)NC(=O)[C@@H](N)Cc1ccc(O)cc1)C(=O)N[C@H](C(=O)O)[C@@H](C)O [DSLET-OH]	20.6 nM	> 10000 nM					
C#CCN(C)[C@H](C)Cc1ccccc1 [US8633208, Deprenyl]			> 10000 nM	> 10000 nM	> 10000 nM	5640 nM	> 10000 nM
CC[C@H](C)[C@H](NC(=O)[C@H](CCCN=C(N)N)NC(=O)[C@H](CCCN=C(N)N)NC(=O)[C@H](CC(C)C)NC(=O)[C@H](Cc1ccccc1)NC(=O)CNC(=O)CNC(=O)[C@@H](N)Cc1ccc(O)cc1)C(=O)O		1.4 nM					
C[C@@H]1[C@@H]2Cc3ccc(O)cc3[C@@]1(C)CCN2CC1CC1 [(SSS)-12-Cyclopropylmethyl-13-methyl-12-aza-tricyclo[9.1.1.0*3,8*]trideca-3(8),4,6-trien-6-ol(cyclazocine)]		0.1 nM					
CC(C)C[C@H](NC(=O)[C@H](Cc1ccccc1)NC(=O)CNC(=O)CNC(=O)[C@@H](N)Cc1ccc(O)cc1)C(=O)N[C@@H](CCCN=C(N)N)C(=O)N[C@@H](CCCN=C(N)N)C(=O)N[C@@H](CCC(N)=O)C(=O)N[C@@H](Cc1ccccc1)C(=O)N[C@@H](CCCCN)C(=O)N[C@H](C(=O)N[C@H](C(=O)N[C@H](C(=O)O)[C@@H](C)O)C(C)C)C(C)C [Dynorphin B (1-13)]	5.5 nM						
